Reference: a melting point compilation (Tetko et al.)

Row | melting point [°C] | SMILES
1 | 178 | O=C(c1ccccc1)c1noc(-c2ccc3ccccc3c2)c1S(=O)(=O)c1ccccc1
2 | 134 | N#CCc1csc2ccc(Cl)cc12
3 | 278 | COc1ccc(/N=N/c2c(N)nn3c(-c4ccccc4)cc(=O)[nH]c23)cc1
4 | 200 to 205 | CC(=O)Oc1ccc2c(c1)Oc1cc(OC(C)=O)ccc1C21OC(=O)c2ccccc21
5 | 256 to 258 | CCOC(=O)C12C(c3cc(Cl)ccc3OP1(=O)OCC)C1(C(=O)OCC)C2c2cc(Cl)ccc2OP1(=O)OCC (stereo unspecified)
6 | 296 | O=C(Nc1cccc2ccccc12)Nc1cccc2ccccc12
7 | 142 to 145 | O=Cc1ccc(-n2ccnc2)cc1
8 | 37 to 38 | O=Cc1ccc2occc2c1
9 | 115 to 117 | CC1(C)CC(=O)c2cc(-c3ccccc3)n(Cc3ccc(Cl)cc3)c2C1
10 | 112 to 114 | Fc1ccccc1-c1ccccc1F
11 | 300 to 305 | COC(=O)Nc1nc2ccc(C(=O)c3cccs3)cc2[nH]1
12 | 111 to 112 | NCc1ccc2c(Br)cccc2c1
13 | 138 | c1ccc(C2=NN(c3ccccc3)C2)cc1
14 | 110 to 112 | c1ccc2c(c1)c1ccccc1n2CC1CO1 (stereo unspecified)
15 | 216 to 217 | O=C1C(=Cc2ccc(Cl)cc2)SC(=S)N1CNc1ccc([N+](=O)[O-])cc1
16 | 160 to 164 | O=C(O)C1(c2ccc(Cl)cc2)CCCC1
17 | 108 | COC(=O)c1c(P(c2ccccc2)c2ccccc2)ccc2ccccc12
18 | 224 | CC(=O)Nc1cc(NC(C)=O)c(C=Cc2ccccc2)cc1C=Cc1ccccc1
19 | 47 | Clc1ccc(SCSc2ccc(Cl)cc2)cc1
20 | 105 | Cc1ccc(NC(=O)C(C)c2ccc(C)cc2)cc1 (stereo unspecified)

Row | melting point [°C] | SMILES
21 | 140 | ON=C(c1ccc(F)cc1)c1ccc(F)cc1
22 | 255 | COc1ccccc1N/N=C(/C#N)c1nc2ccccc2c(=O)[nH]1
23 | 231 | O=C1C(Cl)=C(Cl)C(=O)C(NCc2ccccc2)=C1Cl
24 | 97 | CS(=O)(=O)c1ccc(Cl)cc1
25 | 258 | CC12CCc3c(ccc4cc(O)ccc34)C1CCC2=O (stereo unspecified)
26 | 166 to 169 | O=Cc1cccn1-c1ccc([N+](=O)[O-])cc1
27 | 258 to 260 | COc1ccc(C=C2SC(=NN=CC(C)C)NC2=O)cc1
28 | 282 | NC1=C(C(=O)Nc2ccccc2)C(c2ccc(Br)cc2)C2Oc3ccccc3C2O1 (stereo unspecified)
29 | 93 to 94 | Cc1cc(C(=O)CCl)c(C)n1-c1ccccc1
30 | 128 | CC1=C(C)C(=O)C(C(CCCCCC(=O)O)c2ccccc2)=C(C)C1=O (stereo unspecified)
31 | 207 | Cc1c(Cl)cccc1Nc1ccccc1C(=O)O
32 | 193 | Cc1cc([N+]([O-])=Nc2ccc(N=Nc3ccccc3)cc2)ccc1N=Nc1ccc(N=Nc2ccccc2)cc1
33 | 153 | CCOC(=O)c1c(SC)nn(C(=O)c2cccc([N+](=O)[O-])c2)c1N
34 | 64 to 66 | CCCCOc1ccc(/N=N/c2ccc(CCCC)cc2)cc1
35 | 234 to 235 | O=C1CCC(c2ccc(NC(=O)c3cccc(C(F)(F)F)c3)cc2)=NN1
36 | 139 to 141 | O=Cc1cccn1S(=O)(=O)c1ccccc1[N+](=O)[O-]
37 | 123 to 125 | Cc1nn(-c2ccccc2)nc1C(=O)NN
38 | 65 to 75 | Clc1ccc(C(c2ccccc2)N2CCNCC2)cc1 (stereo unspecified)
39 | 56 | O=[N+]([O-])c1ccc(Sc2ccccc2)cc1
40 | 228 | COS(=O)(=O)c1cc([N+](=O)[O-])ccc1C=Cc1ccc([N+](=O)[O-])cc1S(=O)(=O)OC

Further lines, the molecule ahead of its results:

Row | SMILES | melting point [°C]
41 | CC(C1CC1)C(O)(Cn1cncn1)c1ccc(Cl)cc1 (stereo unspecified) | 108
42 | CCCCCC(O)CCCCC | 25
43 | FC(F)(F)c1ccc(Cl)c(C(F)(F)F)c1 | -59
44 | Cc1nc(-c2cnccn2)sc1C(=O)O | 237 to 238
45 | O=C(O)c1cccc(F)c1O | 147
46 | CC(=O)c1[nH]c2ccccc2c1C | 146 to 148
47 | CN1C(=O)C(=NNc2c(Br)cc(Br)cc2Br)C(=O)N(C)C1=O | 165
48 | CCN1CC2(COC)C(O)CC(OC)C34C5CC6(O)C(O)C5C(O)(C(O)C6OC)C(C(OC)C23)C14 (stereo unspecified) | 132
49 | CCOCCOCCOCCO | -18.7
50 | NCCCS(=O)(=O)O | 270
51 | CN(C)C1(C#N)CCOCC1 | 51 to 52
52 | O=C(CBr)c1cc(-c2ccc(Cl)c(Cl)c2)no1 | 114 to 118
53 | Cc1nccn1C | 37 to 39
54 | CC(C)(C)OC(=O)N[C@H]1CCC[C@H]1C(=O)O (relative stereo) | 90 to 94
55 | C=C1C(=O)C23C(OC(C)=O)CC4C(C)(C)CCC(OC(C)=O)C4(C)C2C(OC(C)=O)CC12OC(C)(C)OC23 (stereo unspecified) | 259
56 | N=C(NCCCC(N)C(=O)O)N[N+](=O)[O-] (stereo unspecified) | 257
57 | NCCCNc1ncc(C(F)(F)F)cc1Cl | 60 to 65
58 | CCSC#N | -85.5
59 | Cc1[nH]c2ccccc2c1C#N | 212 to 213
60 | C=CC1CC2C=CC1C2 (stereo unspecified) | -80
61 | O=C(O)C(=O)Cc1c[nH]c2ccccc12 | 215
62 | CCCC(=O)N(C)C | -40

Row | SMILES | melting point [°C]
63 | CC(=O)Nc1cccc(N)c1C(=O)O | 184
64 | CC(=O)c1cc([N+](=O)[O-])c(Br)s1 | 105 to 106
65 | COc1c(Cl)c(C)c2c(c1Cl)OC(=O)c1c(C)c(Cl)c(O)c(Cl)c1O2 | 232
66 | O=C(O)c1cccc2cccc(Br)c12 | 169 to 171
67 | O=C1OC(=O)C2Cc3ccccc3CC12 (stereo unspecified) | 188
68 | N#CCCP(CCC#N)c1ccccc1 | 73
69 | Nc1ccc2scnc2c1 | 55 to 59
70 | CCOC(=O)c1sc(SC)c2c1CCCC2O (stereo unspecified) | 119 to 122
71 | CCCCCCCC(O)CC (stereo unspecified) | -5
72 | O=C1Cc2ccccc2O1 | 50
73 | NC(=S)c1cccc(Cl)c1Cl | 121 to 123
74 | O=CF | -142
75 | Cc1cc(C)c2c(c1)CC2=O | 48
76 | O=C(N[N+](=O)[O-])c1ccccc1 | 143
77 | CCCCOC(=O)C1=C(C)NC(=O)NC1c1ccc2c(c1)OCO2 (stereo unspecified) | 143
78 | CC(C)(C(=O)O)n1nc2ccccc2n1 | 152
79 | CC(C)CCCCCOC(=O)c1ccccc1C(=O)OCCCCCC(C)C | -4
80 | O=C(O)CCSCSCCC(=O)O | 138 to 140
81 | N#CC(C#N)=Cc1ccc(Cl)cc1 | 91
82 | C=C1C(C)C2C(Cc3ccccc3)NC(=O)C23OC(=O)CCC(O)CCCC(C)CC=CC3C1O (stereo unspecified) | 203 to 205
83 | CCCCOC(=O)c1ccccc1 | -22.4
84 | NC(=S)COc1cccc(Cl)c1 | 122 to 124

Row | SMILES | melting point [°C]
85 | CC1Cc2ccccc2CC1C (stereo unspecified) | -5
86 | O=C(C=NO)Nc1ccccc1 | 175
87 | CN1CCN(Cc2ccc(CO)cc2)CC1 | 96 to 98
88 | c1nnc(SCCSc2nnc[nH]2)[nH]1 | 197 to 200
89 | CCOC(=O)C(/C=C1\C(=O)C2(C)CCC1C2(C)C)(/C=C1\C(=O)C2(C)CCC1C2(C)C)CC(C)C (stereo unspecified) | 156
90 | CC12NC(Cc3ccccc31)c1ccccc12 (stereo unspecified) | 68.8
91 | CC(=O)c1c(Cl)cccc1Cl | 43
92 | O=C1CCCCCC1c1ccccc1 (stereo unspecified) | 21 to 23
93 | COc1ccc(C(=O)c2cccc(OC)c2OC)cc1OC | 118 to 120
94 | Brc1ccc(Oc2c(Br)c(Br)c(Br)c(Br)c2Br)cc1 | 184
95 | COc1nc(NC(C)C)nc(NC(C)C)n1 | 91.5
96 | c1ccc2c(c1)CC1(OCCO1)c1ccccc1CC21OCCO1 | 143 to 144
97 | C=C(C)CCCCCCCCCC | -31
98 | CCCCCCCOc1ccc(O)cc1 | 61.5
99 | N#Cc1ncccc1Cl | 84
100 | CC(O)CO (stereo unspecified) | -60
101 | COC(CNC(c1ccccc1)C(O)c1ccccc1)OC (stereo unspecified) | 145
102 | COC(=O)c1cc(O)no1 | 159 to 160
103 | CC(C)CCCC(C)C1CC[C@@]2(C)C3=CCC4[C@H](C)[C@@H](O)CC[C@]4(C)C3=CC[C@]12C (stereo partly specified) | 123
104 | C[C@H](OC(=O)Nc1ccccc1)C(=O)O | 137 to 142
105 | N=C(N)c1ccc(N)cc1 | 182
106 | FC(F)(F)C(Cl)(Cl)C(F)(F)Cl | -4.3

Row | SMILES | melting point [°C]
107 | C=C1CCC(O)CC1=CC=C1CCCC2(C)C1CCC2C(C)CCCC(C)C (stereo unspecified) | 84.5
108 | N=C(N)NCC1COc2ccccc2O1 (stereo unspecified) | 164
109 | O=C(O)CN(CCO)CCO | 190 to 192
110 | CCOC(=O)c1cnc2c(c(C)nn2C)c1Oc1cc(Cl)cc(Cl)c1 | 115 to 117
111 | O=C(Oc1c(F)c(F)c(F)c(F)c1F)C1CCN(c2ncnc3ccsc23)CC1 | 99 to 104
112 | NC(=O)CCCCC(N)=O | 226
113 | O=C(Cl)OCC1=Cc2ccccc2S1(=O)=O | 77
114 | N#CCC(=O)c1cccc(Cl)c1 | 81
115 | CC(C)(Cl)CCC(C)(C)Cl | 67.5
116 | O=Cc1c(F)cc(F)cc1F | 66
117 | C#CC(C1COC(C)(C)O1)N(O)Cc1ccccc1 (stereo unspecified) | 115
118 | Cc1ccccc1N1CCNCC1 | 48 to 52
119 | Cc1ccc(C)c(NN=C2C(=O)NN=C2C(F)(F)F)c1 | 189
120 | CCCCCCCc1ccc(O)cc1 | 26.5
121 | Cc1oc(-c2ccccc2)cc1C(=O)O | 183
122 | O=C(Nc1ccccc1)OC1C=CC=CCC1OC(=O)Nc1ccccc1 (stereo unspecified) | 179 to 180
123 | COc1cccc(CNC(N)=S)c1 | 91 to 93
124 | Nc1ccc(-c2ccc(N)cc2)cc1 | 124
125 | Cc1cc(C)c(C(=O)P(=O)(c2ccccc2)c2ccccc2)c(C)c1 | 90
126 | CCN(CC)CCOC(=O)C(O)(c1ccccc1)c1ccccc1 | 51
